Data taken from US9499585B2, “Bioactive peptide complexes” (priority 2012, dated 2016).
No end group written: not given here.

Tests used:
[1] = test system: A/Aichi/2/68 (H3N2) flu strain; assay type: in vivo, white mice
[2] = Zn^++ ion binding with A1 peptide by light-scattering method; assay type: physicochemical; conditions: Zn(NO3)2; light scattering at 400 nm; aggregates dissolve on adding EDTA
Excerpt: Zn^++ ion binding with alloferon 1 (A1) and its homologs was studied by the method described [Shi Y., Beger R. D., Berg J. M. Metal binding properties of single amino acid deletion mutants of zinc finger peptides: studies using cobalt(II) as a spectroscopic prob. Biophys. J., 1993, Vol. 64, p. 749-753]. Zn^++ ion binding with A1 peptide was studied by the light-scattering method using ISS, Campaign, IL fluorimeter at 400 nm and excitation light 398 nm.
For analysis conditions refer to Shi Y. et al. (1993)
A—(open circles) A1 and Zn(N03)2. interaction Excess molar quantity of Zn^++ ion comparing to peptide was 1:10. Firm line—peptide enrichment with Zn^+ ion. Ground peptide mass changed into aggregates with complete enrichment. EDTA was added to aggregates. Subsequent to addition of EDTA the complex quickly dissociated and peptide (alloferon) changed to soluble phase.

Type I interferons = Type I interferons induction; conditions: FIG. 6
Excerpt: Type I interferons induction was studied by the previously published method [F. I. Yershov., O. I. Kiselev. Interferons and their inducers (from the molecule to the drug) M.: Publ. House. Geotar—Media, 2005-P. 356, Chernysh et al. 2002].

| Molecule | protective effect ([1]; […], mice observed 15 days) | diameter of polydisperse nanoparticles formed on peptide aggregation with Zn^++ [2] | interferon induction activity (Type I interferons) | protective effect (in words) ([1]; mouse, in vivo) |
| --- | --- | --- | --- | --- |
| CC(N)C12CC3CC(CC(C3)C1)C2 (stereo not shown) [Remantadin] | 80-87% | – | – | – |
| HGVSGHGQHGVHG [Alloferon A1, nonmodified base peptide] | – | 50-60 nm | quite high level of interferon induction ability | comparable to efficiency of the protective effect of reference drug Remantadin |
